Here are results for one molecule from patent publication US9096833B2, “Methods of treating pre-malignant ductal cancer with autophagy inhibitors” (GEORGE MASON UNIVERSITY, priority 2009, dated 2015).

Structures are written as SMILES.

In assay [1] the test system is DCIS malignant precursor cells. The protocol:
Tissue collection. […] Gross tissue pathology at the time of procurement was assessed by a board certified pathologist. Tissue containing DCIS lesions was excised for further macrodissection and rinsed in sterile phosphate buffered saline to remove sentinel lymph node dye. Using sterile technique, ductal tissue was dissected from surrounding breast adipose/fibrous tissue. The ductal tissue was rinsed in serum free DMEM/F12 medium (Invitrogen, Carlsbad, Calif., USA) supplemented with human recombinant EGF (10 ng/mL; Cell Signaling Technology, Danvers, Mass., USA or Millipore, Billerica, Mass., USA), insulin (10 μg/mL; Roche, Indianapolis, Ind., USA), streptomycin sulfate (100 μg/mL; Sigma, St. Louis, Mo., USA) and gentamicin sulfate (20 μg/mL; Sigma) prior to distribution in culture flasks (MidSci, St. Louis, Mo., USA). Ductal tissue was allowed to attach to the culture surface and observed daily for cellular outgrowths. Non-adherent organoids were removed from the culture flask.
Organoid ex vivo culture. Dissected breast ductal tissue was grown in 115 cm^2 TPP reclosable flasks (MidSci) or 10 cm^2 culture tubes (MidSci) in serum free DMEM/F12 medium supplemented with human recombinant EGF (10 ng/mL), insulin (10 μg/mL), streptomycin sulfate (100 μg/mL) and gentamicin sulfate (20 μg/mL), with or without 0.36% (v/v) murine Engelbreth-Holm-Swarm (EHS) derived, growth factor reduced, basement membrane extract (Trevigen, Gaithersburg, Md., USA) at 37° C. in a humidified 5.0% CO2 atmosphere. Medium was replaced three times per week. Cultures were maintained continuously for up to one year. Periodically, organoids were removed, under microscopic visualization, for propagation into new culture flasks or phenotypic and molecular analysis.
(§1) Pharmacological inhibition of autophagy. […] CO-containing medium was replaced three times per week for a period of 6 months.
(§2) Statistics. The Student T-test, two tailed with Welch's correction, was used to calculate the p-value, and to determine the statistical difference of epithelial outgrowth area before and after CQ treatment. P values <0.05 were considered significant. Standard deviation (SO) or standard error of the mean (SEM) was calculated for group comparisons. Wilcoxon rank sum was used to determine the differences between CQ treated and untreated groups for the reverse phase protein arrays. A p=0.1 was considered different for small sample sizes.

Assay [2] deals with autophagy associated pathways. Briefly: Cell signaling pathway mapping by reverse phase protein microarray (RPMA) of DCIS spheroids pre and post chloroquine. To be noted: for autophagy associated signal pathway proteins/endpoints (Atg5, AKT, ERK, mTOR, IRS-1, p38 etc.) by RPMA: chloroquine phosphate 50 μM for 4 days, spheroids pre vs post treatment, n=3. It is filed as cell-based, human. On the procedure: as §1, §2

For assay [3], the system named is DCIS organoid culture spheroids. The assay is described as follows: Autophagosome lysosome imaging with LysoTracker Red in DCIS organoid culture. Format: cell-based, human. The following applies: chloroquine phosphate (50 μM) for 2 weeks.
The test system of assay [4] is DCIS organoid cell cultures. The assay is described as follows: H&E histomorphology of chloroquine treated DCIS organoid cell cultures. Format: cell-based, human. To be noted: chloroquine phosphate (50 μM). The protocol:
as §1
Immunohistochemistry. Formalin fixed murine tissue or DCIS organoids were processed and paraffin embedded by commercial laboratories (AML Laboratories, Inc, Rosedale, Md. or Bi-Biomics, Nampa, Id.). Formalin fixed paraffin embedded (FFPE) tissue sections (5 μm or 1 μm thickness) mounted on positively charged glass slides were baked at 56° C. for 20 min., deparaffinized in xylene and rehydrated in a series of graded alcohols (100%, 95%, and 70%) with a final rinse in wash buffer (Dako, Carpinteria, Calif., USA). Antigen retrieval, when necessary, was performed with proteinase K or heat induced epitope retrieval. Immunostaining was performed on a Dako Autostainer with an Envision+HRP staining kit (Dako) per manufacturer's instructions. Stained tissue sections were counterstained with Hematoxylin (Dako), rinsed in distilled water and developed in Scott's Tap Water Substitute solution. Cover slips were applied using aqueous mounting medium (Paramount; Dako). Images were captured with an Olympus BX51 microscope using 4×, 10×, 20×, or 100× objectives.

Take `CCN(CC)CCCC(C)Nc1ccnc2cc(Cl)ccc12` (stereo not drawn) [chloroquine, N′-(7-chloroquinolin-4-yl)-N,N-diethyl-pentane-1,4-diamine]: in assay [1] (case 09-148, chloroquine phosphate 50 μM), the “explants that did not have any spheroids following chloroquine treatment” value was 12 out of 14. The spheroids after treatment entry in assay [1] (case 09-301, n=3, 20.5±7.8 prior to treatment) was “no spheroids observed”. Besides, the “ex vivo invasion of autologous stroma” value in assay [1] (chloroquine phosphate) is recorded as “suppressed ex vivo invasion of autologous stroma”. In addition, in assay [1] (cultured DCIS cells, in combination with anti-estrogen compound (tamoxifen)), the “inhibition of spheroid outgrowth, CQ in combination with tamoxifen” value is “pronounced effect”. In assay [1] (two different patient DCIS cases, up to 113 spheroids per duct organoid untreated), the “number of spheroids generated post chloroquine treatment, majority of explants” value is “zero”. The “apoptosis (elevation of cleaved PARP Asp214)” value in assay [2] (as early as 48 hours post treatment) is listed as “induced apoptosis”. Also, the “autophagy associated signal pathway proteins/endpoints (Atg5, AKT, ERK, mTOR, IRS-1, p38 etc.) by RPMA” value in assay [2] (listed as CQ) was “suppressed”; in assay [2] (listed as Chloroquine) it was “markedly inhibited”; in assay [2] (listed as chloroquine phosphate), “suppressed autophagy associated proteins”. In addition, the “spheroid integrity and LysoTracker Red distribution” value in assay [3] was “Dissociation of the spheroid, and diffuse accumulation of LysoTracker Red”. The “histology of organoid cultured in the presence of chloroquine for 6 months” value in assay [4] (6 months) is “complete absence of cellular outgrowths and degenerated cells within the duct”. The “histology of organoid 2 days post chloroquine treatment” value in assay [4] (2 days) is listed as “Degeneration of the invading DCIS cells within the organoid”.
